Data from US8372838B2, “Compounds as bradykinin B1 antagonists” (Boehringer Ingelheim International GmbH, priority 2010, dated 2013).

Experiments:
cynomolgus BK1-receptor = target: T1, cynomolgus BK1-receptor (Macaca fascicularis, UniProt Q3BCU0); assay: cynoBK1-receptor binding assay
T1 construct: expressed in transfected cells; host or cells: CHO cells
T1 sequence (Q3BCU0 1-352): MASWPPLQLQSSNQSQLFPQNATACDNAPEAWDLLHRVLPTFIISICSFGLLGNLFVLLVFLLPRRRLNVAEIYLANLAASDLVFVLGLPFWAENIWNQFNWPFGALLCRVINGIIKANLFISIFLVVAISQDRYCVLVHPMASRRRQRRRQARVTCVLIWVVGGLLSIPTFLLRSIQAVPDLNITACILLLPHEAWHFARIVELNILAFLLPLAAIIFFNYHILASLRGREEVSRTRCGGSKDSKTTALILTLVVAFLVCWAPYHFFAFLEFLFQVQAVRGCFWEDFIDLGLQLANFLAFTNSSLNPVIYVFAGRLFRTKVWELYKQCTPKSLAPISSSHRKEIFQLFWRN
Procedure: Description of the Method of Binding the CynoBK1-Receptor
CHO cells that express the cynomolgus BK1-receptor are cultivated in “HAM'S F-12 Medium”. The medium is removed from confluent cultures, the cells are washed with PBS buffer, scraped off or detached using Versene and isolated by centrifuging. Then the cells are homogenised in suspension, the homogenate is centrifuged and resuspended. After the protein content has been determined 200 μl of the homogenate (50 to 250 μg protein/assay) are incubated for 60-180 minutes at ambient temperature with 0.5 to 5.0 nM kallidine (DesArg10,Leu9), [3,4-Prolyl-3,43H(N)] and increasing concentrations of the test substance in a total volume of 250 μl. The incubation is stopped by rapid filtration through GF/B glass fibre filters that have been pre-treated with polyethyleneimine (0.3%). The radioactivity bound to the protein is measured with a TopCount NXT. The radioactivity bound in the presence of 1.0 μM kallidine (DesArg10) is defined as non-specific binding. The concentration binding curve may be analysed using computer-aided non-linear curve fitting to determine the corresponding Ki value for the test substance.
Test results of the cynoBK1-receptor binding assay: […]

human hepatocytes = assay: metabolic clearance in human hepatocytes; assay type: in vitro ADME; conditions: cryopreserved primary human hepatocytes, 5% human serum, 1 μM test compound, 6 h; well-stirred model, percentage of human hepatic blood flow
Text: The metabolic stability can be measured by determining the decomposition in human hepatocytes and using the rate of decomposition to calculate the clearance, which in turn is expressed as a percentage of the human hepatic blood flow (% Qh). […] Thus, in the interests of achieving a long duration of activity it is highly advantageous if the active substance has a high metabolic stability (low clearance).
Description of Method for Determining Metabolic Clearance in Human Hepatocytes
The metabolic breakdown of the test substance is determined in a hepatocyte suspension. Cryopreserved primary human hepatocytes are incubated in a suitable incubation medium (e.g. Dulbecco's modified eagle medium, DMEM) which contains 5% human serum. After 30 minutes' pre-incubation in the incubator (37° C., 10% carbon dioxide) 5 μL of the test compound (80 μM, prepared from a 2 mM stock solution in dimethylsulphoxide and diluted 1:25 with incubation medium) are added to 395 μL of hepatocyte suspension (cell density in the range from 0.25-1 million cells/mL, typically 1 million cells/mL; final concentration of the test compound 1 μM). The cells are incubated for 6 hours in an incubator with an orbital agitator. At times 0, 0.5, 1, 2, 4 and 6 h, 25 μL of the medium are removed in each case. The medium removed is mixed with an excess of acetonitrile and centrifuged for 5 minutes. The supernatant is removed, evaporated to dryness under nitrogen and taken up in a mixture of 25% methanol and 0.1% formic acid. The reduction in the concentration of the test substance in the incubation medium is determined by coupling liquid chromatography with electrospray mass spectrometry. The linear phase of the decrease in the concentration of the test substance in the medium is used for the calculation. The intrinsic clearance is calculated as follows: CL_INTRINSIC=dose/AUC=(C0/CD)/(AUD+clast/k)×1000/60. C0: initial concentration in the incubation [μM], CD: cell density of the vital cells [10e6cells/mL], AUD: area under the curve [μM×h], clast: concentration of the last data point [μM], k: increase in the regression lines for the reduction in the test substance [h−1]. The intrinsic in vitro clearance calculated is now converted into the intrinsic in vivo clearance: CL_INTRINSIC_INVIVO [ml/min/kg]=(CL_INTRINSIC [μL/min/10e6cells]×hepatocellularity [10e6 cells/g liver]×liver factor [g/kg body weight])/1000 and the estimated human clearance is calculated using the well-stirred model: CL [ml/min/kg]=CL_INTRINSIC_INVIVO [ml/min/kg]×hepatic blood flow [ml/min/kg]/(CL_INTRINSIC_INVIVO [ml/min/kg]+hepatic blood flow [ml/min/kg]). […]

[1] = CHO cell homogenate expressing cynomolgus BK1-receptor, radioligand kallidine (DesArg10,Leu9), [3,4-Prolyl-3,43H(N)]
[2] = cynoBK1-receptor binding, repeated beside clearance in the metabolic stability table

Row | SMILES | Ki (cynomolgus BK1-receptor; [1]) | Ki (cynomolgus BK1-receptor; [2]) | Clearance (human hepatocytes)
1 | O=C(N[C@@]1(C(=O)NCc2ccc(Nc3ccc(Br)cc3C(F)(F)F)cc2)CCOC1)c1cn[nH]c(=O)c1 [Example 8, (S)-6-oxo-1,6-dihydro-pyridazine-4-carboxylic acid-{3-[4-(4-bromo-2-trifluoromethyl-phenylamino)-benzylcarbamoyl]-tetrahydrofuran-3-yl}-amide] | 37 nM | – | –
2 | O=C(N[C@@]1(C(=O)NCc2ccc(Nc3ccccc3C(F)(F)F)cc2F)CCOC1)c1cn[nH]c(=O)c1 [Example 9, (S)-6-oxo-1,6-dihydro-pyridazine-4-carboxylic acid {3-[2-fluoro-4-(2-trifluoromethyl-phenylamino)-benzylcarbamoyl]-tetrahydro-furan-3-yl}-amide] | 6.6 nM | – | –
3 | O=C(NC1(C(=O)NCc2ccc(Nc3ccc(F)cc3C(F)(F)F)cn2)CC1)c1cn[nH]c(=O)c1 [Example 1, 6-oxo-5,6-dihydro-pyridazine-4-carboxylic acid-(1-{[5-(4-fluoro-2-trifluoromethyl-phenylamino)-pyridin-2-ylmethyl]-carbamoyl}-cyclopropyl)-amide] | 3.5 nM | 3.5 nM | 1 % Qh
4 | O=C(N[C@@]1(C(=O)NCc2ccc(Nc3ccc(F)cc3C(F)(F)F)cc2F)CCOC1)c1cn[nH]c(=O)c1 [Example 6, (S)-6-oxo-1,6-dihydro-pyridazine-4-carboxylic acid-{3-[2-fluoro-4-(4-fluoro-2-trifluoromethyl-phenylamino)-benzylcarbamoyl]-tetrahydrofuran-3-yl}-amide] | 3.2 nM | – | 6 % Qh
5 | O=C(N[C@@]1(C(=O)NCc2ccc(Nc3ccc(F)cc3C(F)(F)F)cc2)CCOC1)c1cn[nH]c(=O)c1 [Example 3, (S)-6-oxo-1,6-dihydro-pyridazine-4-carboxylic acid-{3-[4-(4-fluoro-2-trifluoromethyl-phenylamino)-benzylcarbamoyl]-tetrahydrofuran-3-yl}-amide] | 12 nM | 12 nM | 7 % Qh
6 | O=C(N[C@@]1(C(=O)NCc2ccc(Nc3ccc(Cl)cc3C(F)(F)F)cc2F)CCOC1)c1cn[nH]c(=O)c1 [Example 7, (S)-6-oxo-1,6-dihydro-pyridazine-4-carboxylic acid-{3-[4-(4-chloro-2-trifluoromethyl-phenylamino)-2-fluoro-benzylcarbamoyl]-tetrahydrofuran-3-yl}-amide] | 30 nM | – | –
7 | O=C(N[C@@]1(C(=O)NCc2ccc(Nc3ccccc3C(F)(F)F)cc2)CCOC1)c1cn[nH]c(=O)c1 [Example 5, (S)-6-oxo-1,6-dihydro-pyridazine-4-carboxylic acid-{3-[4-(2-trifluoromethyl-phenylamino)-benzylcarbamoyl]-tetrahydrofuran-3-yl}-amide] | 11 nM | 11 nM | 22 % Qh
8 | O=C(NC1(C(=O)NCc2ccc(Nc3ccc(Cl)cc3C(F)(F)F)cn2)CC1)c1cn[nH]c(=O)c1 [Example 2, 6-oxo-1,6-dihydro-pyridazine-4-carboxylic acid-(1-{[5-(4-chloro-2-trifluoromethyl-phenylamino)-pyridin-2-ylmethyl]-carbamoyl}-cyclopropyl)-amide] | 5.1 nM | – | –
9 | O=C(N[C@@]1(C(=O)NCc2ccc(Nc3ccc(Cl)cc3C(F)(F)F)cc2)CCOC1)c1cn[nH]c(=O)c1 [Example 4, (S)-6-oxo-1,6-dihydro-pyridazine-4-carboxylic acid-{3-[4-(4-chloro-2-trifluoromethyl-phenylamino)-benzylcarbamoyl]-tetrahydrofuran-3-yl}-amide] | 27 nM | – | –
